Source: ChEMBL document CHEMBL4038320 (J Med Chem, 2017)

Columns and labels:
[1] = biological target: Rho-associated protein kinase 2 (Homo sapiens, UniProt O75116); experiment: Inhibition of recombinant human N-terminal GST-tagged ROCK2 catalytic domain (1 to 553 residues) expressed in baculovirus expression system using STK 2-biotin as substrate measured after 60 mins by HTRF/TR-FRET assay
CYP3A4 = CYP3A4 (Homo sapiens, UniProt P08684); experiment: Inhibition of CYP3A4 (unknown origin) at 10 uM; type: ADME
[2] = biological target: Protein kinase C alpha type (Homo sapiens, UniProt P17252); experiment: Inhibition of human PKCalpha active using MBP as substrate after 60 mins in presence of [gamma-32]ATP by scintillation counting

Sequence of CYP3A4 (P08684 whole entry): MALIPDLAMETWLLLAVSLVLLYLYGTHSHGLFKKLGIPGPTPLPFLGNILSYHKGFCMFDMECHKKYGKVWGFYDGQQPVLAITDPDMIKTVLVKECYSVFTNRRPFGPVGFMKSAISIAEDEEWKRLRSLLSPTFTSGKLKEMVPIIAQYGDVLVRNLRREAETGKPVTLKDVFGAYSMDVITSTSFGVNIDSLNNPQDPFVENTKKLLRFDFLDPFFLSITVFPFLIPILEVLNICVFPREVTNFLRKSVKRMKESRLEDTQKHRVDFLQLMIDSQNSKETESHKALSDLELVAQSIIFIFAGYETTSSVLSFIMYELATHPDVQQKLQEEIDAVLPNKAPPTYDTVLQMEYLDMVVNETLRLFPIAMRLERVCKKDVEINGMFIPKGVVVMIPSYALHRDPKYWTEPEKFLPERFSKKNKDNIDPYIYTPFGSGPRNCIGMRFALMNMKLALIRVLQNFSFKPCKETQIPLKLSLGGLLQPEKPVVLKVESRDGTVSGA
Sequence of Rho-associated protein kinase 2 (O75116 whole entry, the tested form may be a part): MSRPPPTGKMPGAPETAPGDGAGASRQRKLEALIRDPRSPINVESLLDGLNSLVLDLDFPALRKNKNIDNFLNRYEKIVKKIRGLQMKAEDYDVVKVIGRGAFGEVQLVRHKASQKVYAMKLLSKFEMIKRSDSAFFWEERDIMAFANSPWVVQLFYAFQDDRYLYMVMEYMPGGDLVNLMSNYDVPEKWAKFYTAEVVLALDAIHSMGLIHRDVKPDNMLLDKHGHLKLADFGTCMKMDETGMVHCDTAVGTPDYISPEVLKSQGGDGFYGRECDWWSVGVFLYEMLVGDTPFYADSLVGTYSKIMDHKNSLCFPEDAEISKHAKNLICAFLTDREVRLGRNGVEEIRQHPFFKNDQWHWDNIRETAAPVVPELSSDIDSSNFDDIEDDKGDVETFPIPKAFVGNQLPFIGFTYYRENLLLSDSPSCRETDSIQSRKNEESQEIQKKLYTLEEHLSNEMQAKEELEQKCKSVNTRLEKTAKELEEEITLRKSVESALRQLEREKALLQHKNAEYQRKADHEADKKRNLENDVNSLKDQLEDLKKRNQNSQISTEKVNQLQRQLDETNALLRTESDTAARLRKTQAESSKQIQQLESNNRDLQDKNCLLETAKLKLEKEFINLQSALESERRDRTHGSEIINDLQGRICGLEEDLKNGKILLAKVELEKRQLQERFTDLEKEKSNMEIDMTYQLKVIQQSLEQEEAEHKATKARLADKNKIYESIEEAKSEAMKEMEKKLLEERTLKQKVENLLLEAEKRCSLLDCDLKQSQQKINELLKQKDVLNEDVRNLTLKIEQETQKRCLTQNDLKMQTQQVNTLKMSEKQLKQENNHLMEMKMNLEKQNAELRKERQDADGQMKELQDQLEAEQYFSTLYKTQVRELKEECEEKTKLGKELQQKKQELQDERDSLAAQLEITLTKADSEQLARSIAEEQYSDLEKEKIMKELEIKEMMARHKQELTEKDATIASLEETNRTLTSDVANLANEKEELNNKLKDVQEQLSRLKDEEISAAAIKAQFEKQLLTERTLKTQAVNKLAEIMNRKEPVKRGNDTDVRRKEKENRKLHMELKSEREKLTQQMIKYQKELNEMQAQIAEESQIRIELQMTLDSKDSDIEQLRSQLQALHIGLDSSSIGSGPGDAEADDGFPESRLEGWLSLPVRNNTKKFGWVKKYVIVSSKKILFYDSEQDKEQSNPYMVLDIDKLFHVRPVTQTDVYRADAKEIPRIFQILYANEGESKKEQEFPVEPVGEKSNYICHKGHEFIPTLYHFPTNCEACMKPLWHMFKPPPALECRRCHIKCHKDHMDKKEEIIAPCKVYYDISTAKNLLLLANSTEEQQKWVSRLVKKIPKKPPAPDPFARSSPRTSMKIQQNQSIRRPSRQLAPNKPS

Row | Compound | IC50 [1] | inhibition at 10 µM (CYP3A4) | IC50 [2]
1 | Clc1cccc(OCc2n[nH]c(-c3ccncc3)n2)c1 | 1.7 µM | 86% | 
2 | O=C(CNc1ccccc1)N/N=C/c1ccncc1 | 0.64 µM |  | 
3 | O=C(CNc1cccc(Cl)c1)N/N=C/c1ccncc1 | 0.3 µM |  | 
4 | COc1cccc(NCC(=O)N/N=C/c2ccncc2)c1 | 0.062 µM |  | 
5 | COc1ccccc1NCC(=O)N/N=C/c1ccncc1 | 7.4 µM |  | 
6 | O=C(CNc1ccc(Cl)cc1)N/N=C/c1ccncc1 | 0.54 µM |  | 
7 | Cn1c(CNc2cccc(C(=O)NCc3c(F)cccc3F)c2)nnc1-c1ccnc(NCCc2ccccc2)c1 | > 10 µM | 69% | 
8 | Clc1ccccc1NCc1nc(-c2ccncc2)n[nH]1 | 1.7 µM | 100% | > 10 µM
9 | Clc1ccc(NCc2nc(-c3ccncc3)n[nH]2)cc1 | 0.094 µM | 97% | > 10 µM
10 | Cc1cnccc1-c1n[nH]c(CNc2cccc(C(=O)NCc3ccccc3)c2)n1 | 0.094 µM | 88% | > 10 µM
11 | COc1cccc(NCc2nc(-c3ccncc3)n[nH]2)c1 | 0.72 µM | 92% | > 10 µM
12 | CCOc1cccc(NCC(=O)N/N=C2\CCCc3cnccc32)c1 | 5.7 µM |  | > 10 µM
13 | Clc1ccc(NCCc2nc(-c3ccncc3)n[nH]2)cc1 | 0.9 µM | 93% | 
14 | CN(Cc1ccccc1)C(=O)c1cccc(NCc2nc(-c3ccncc3)n[nH]2)c1 | 2.2 µM | 79% | > 10 µM
15 | c1ccc(CSc2cccc(NCc3nc(-c4ccncc4)n[nH]3)c2)cc1 | 1.2 µM | 100% | > 10 µM
16 | c1ccc(CCOc2cccc(NCc3nc(-c4ccncc4)n[nH]3)c2)cc1 | 2.7 µM | 96% | > 10 µM
17 | CNc1cc(-c2nnc(CNc3cccc(C(=O)NCc4c(F)cccc4F)c3)n2C)ccn1 | 7.4 µM | 29% | 
18 | O=C(NCc1ccccc1)c1cccc(NCc2nc(-c3ccncc3)c[nH]2)c1 | 0.0073 µM | 100% | 3.6 µM
19 | CC(=O)Nc1cc(-c2nnc(CNc3cccc(C(=O)NCc4ccccc4C(F)(F)F)c3)n2C)ccn1 | > 10 µM | 56% | 
20 | Clc1ccc(CNc2nc(-c3ccncc3)n[nH]2)cc1 | 0.27 µM | 96% | 
21 | O=C(CNc1cccc(OCc2ccccc2)c1)N/N=C1\CCCc2cnccc21 | > 10 µM |  | > 10 µM

Row | Compound | IC50 [1] | inhibition at 10 µM (CYP3A4) | IC50 [2]
22 | CC(=O)Nc1cc(NCc2nc(-c3ccncc3)n[nH]2)ccc1Cl | 0.074 µM | 80% | 8.3 µM
23 | NS(=O)(=O)c1cccc(NCc2nc(-c3ccncc3)n[nH]2)c1 | 0.16 µM | 25% | > 10 µM
24 | O=C(NCc1c(F)cccc1F)c1cccc(NCc2nnc3n2CCOc2cnccc2-3)c1 | 0.19 µM | 49% | 
25 | c1ccc(Oc2cccc(NCc3nc(-c4ccncc4)n[nH]3)c2)cc1 | > 10 µM | 100% | > 10 µM
26 | O=C(NCCCc1ccccc1)c1cccc(NCc2nc(-c3ccncc3)n[nH]2)c1 | 0.1 µM | 94% | > 10 µM
27 | O=S(=O)(Cc1ccccc1)c1cccc(NCc2nc(-c3ccncc3)n[nH]2)c1 | 1.1 µM | 86% | 
28 | O=C(Nc1ccccc1)c1cccc(NCc2nc(-c3ccncc3)n[nH]2)c1 | 0.031 µM | 94% | 0.68 µM
29 | COc1ccccc1NCc1nc(-c2ccncc2)n[nH]1 | 1.8 µM | 93% | > 10 µM
30 | O=C(NCc1ccccc1)c1cccc(NCc2ccn(-c3ccncc3)c2)c1 | 0.34 µM | 95% | 
31 | OCCc1cnccc1-c1n[nH]c(CNc2ccc(Cl)cc2)n1 | > 10 µM | 100% | 
32 | O=C(NCc1ccccc1)c1cccc(NCc2c[nH]c(-c3ccncc3)n2)c1 | 0.16 µM | 93% | 
33 | COc1cccc(NCC(=O)N/N=C2\CCCc3cnccc32)c1 | 0.39 µM |  | > 10 µM
34 | O=C(CNc1cccc(C(=O)NCc2ccccc2)c1)N/N=C1\CCCc2cnccc21 | 0.058 µM |  | > 10 µM
35 | COc1ccc(NCc2nc(-c3ccncc3)n[nH]2)cc1 | 0.28 µM | 95% | > 10 µM
36 | O=C(NCc1ccccc1)Nc1cccc(NCc2nc(-c3ccncc3)n[nH]2)c1 | 0.03 µM | 92% | 2.7 µM
37 | c1ccc(CNCc2nc(-c3ccncc3)n[nH]2)cc1 | 5.1 µM | 74% | 
38 | O=C(CNc1cccc(Oc2ccccc2)c1)N/N=C1\CCCc2cnccc21 | 6.2 µM |  | > 10 µM
39 | CC(=O)Nc1cccc(NCc2nc(-c3ccncc3)n[nH]2)c1 | 0.07 µM | 77% | 
40 | O=C(NCc1ccccc1)c1cccc(NCc2cc(-c3ccncc3)n[nH]2)c1 | 0.06 µM | 99% | 7.2 µM
41 | Cn1c(CNc2cccc(C(=O)NCc3c(F)cccc3F)c2)nnc1-c1ccnc(NCCCc2ccccc2)c1 | > 10 µM | 64% | 2.5 µM
42 | O=C(NCc1ccccc1)c1cccc(NCc2cc(-c3ccncc3)on2)c1 | 0.018 µM | 84% | 2.5 µM

Row | Compound | IC50 [1] | inhibition at 10 µM (CYP3A4) | IC50 [2]
43 | NC(=O)OCc1cnccc1-c1n[nH]c(CNc2cccc(C(=O)NCc3ccccc3)c2)n1 | 2.3 µM | 63% | 
44 | Cc1cc(-c2n[nH]c(CNc3ccc(Cl)cc3)n2)ccn1 | 7.1 µM | 47% | > 10 µM
45 | c1ccc(NCc2nc(-c3ccncc3)n[nH]2)cc1 | 0.63 µM | 94% | > 10 µM
46 | O=S(=O)(NCc1ccccc1)c1cccc(NCc2nc(-c3ccncc3)n[nH]2)c1 | 0.098 µM | 83% | 
47 | O=C(NCc1ccccc1)c1cccc(NCc2nnc(-c3ccncc3)n2Cc2ccccc2)c1 | 3.2 µM | 87% | 
48 | O=C(CNc1cccc(C(=O)N2CCOCC2)c1)N/N=C1\CCCc2cnccc21 | > 10 µM |  | 
49 | O=C(Cc1ccccc1)Nc1cc(NCc2nc(-c3ccncc3)n[nH]2)ccc1Cl | 0.018 µM | 90% | 1.7 µM
50 | c1ccc(COc2cccc(NCc3nc(-c4ccncc4)n[nH]3)c2)cc1 | 1.4 µM | 97% | > 10 µM
51 | Clc1cccc(NCc2nc(-c3ccncc3)n[nH]2)c1 | 0.38 µM | 93% | > 10 µM
52 | Cn1c(CNc2cccc(C(=O)NCc3c(F)cccc3F)c2)nnc1-c1ccnc(NCc2ccccc2)c1 | > 10 µM | 47% | > 10 µM
53 | O=C(NCc1ccccc1)c1cccc(NCc2nc(-c3ccncc3CO)n[nH]2)c1 | 0.54 µM | 100% | > 10 µM
54 | Clc1ccc(CSc2nc(-c3ccncc3)n[nH]2)cc1 | 1.9 µM | 97% | 
55 | O=C(NCc1ccccc1)c1cccc(NCc2[nH]nc(-c3ccncc3)c2-c2ccccc2)c1 | 0.17 µM | 87% | 
56 | O=C(CNc1ccccc1)N/N=C1\CCCc2cnccc21 | 1.8 µM |  | 
57 | Clc1ccc(SCc2nc(-c3ccncc3)n[nH]2)cc1 | 0.59 µM | 100% | 
58 | O=C(Cc1cccc(NCc2nc(-c3ccncc3)n[nH]2)c1)NCc1ccccc1 | 0.48 µM | 92% | > 10 µM
59 | NS(=O)(=O)c1ccc(NCc2nc(-c3ccncc3)n[nH]2)cc1 | 0.36 µM | 20% | > 10 µM
60 | COc1ccc(NCC(=O)N/N=C/c2ccncc2)cc1 | 3.7 µM |  | 
61 | O=C(Nc1nc(-c2ccncc2)n[nH]1)c1ccc(Cl)cc1 | > 10 µM | 27% | 
62 | O=C(NCCc1ccccc1)c1cccc(NCc2nc(-c3ccncc3)n[nH]2)c1 | 0.047 µM | 95% | > 10 µM
63 | O=C(CNc1ccccc1Cl)N/N=C/c1ccncc1 | 2.6 µM |  | 
